One assay addresses Transthyretin (Homo sapiens, UniProt P02766). The assay is described as follows: Luminescence-based cell-based high throughput dose response assay to identify activators of Transthyretin (TTR) transcription. Type of assay: functional.
The target in a further assay is Kallikrein-7 (Homo sapiens, UniProt P49862). Put plainly: Fluorescence Intensity-based biochemical primary high throughput dose response assay to identify activators of kallikrein-7 (K7) zymogen.
The nature of assay [1]: viability loss in HEK293 cells – cell-based, plate reader, cherry-picked samples, cytotoxicity control, dose response (AID 743446). In kind it is functional.
A short description of assay [2]: Luminescence Cell-Based Dose Confirmation HTS to Identify Inhibitors of Platelet Dense Granule Release. [Related pubchem assays: 1663 (Primary HTS), 1678 (Summary of Project)]. Type of assay: functional.
Assay [3] concerns BJ. Put plainly: BJ-TERT-LT-ST fibroblast viability loss – cell-based, RAS-independent, luminescence, dose response (AID 1935).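 Note: BJ fibroblasts immortalized with TERT plus LT and ST oncogenes.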 Type of assay: functional. The conditions noted are these: Homo sapiens.
A short description of assay [4]: toxicity toward HepG2 liver cells – cell-based, plate reader, cherry-pick, antagonist series, cytotoxicity control, dose response (AID 743416). In kind it is functional.
A short description of assay [5]: blockers of bursicon-stimulated LGR2 cAMP reporter – cell-based, HEK293, CRE-luciferase reporter, cherry pick, set 2, dose response (AID 743343).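 Note: transfected cells were stimulated with diluted bursicon conditioned medium after compound addition.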 In kind it is functional.
The target in assay [6] is Luciferin 4-monooxygenase (Photinus pyralis, UniProt P08659). Put plainly: inhibition of purified Photinus pyralis luciferase – biochemical, luminescence, dose response (AID 1891).
A short description of assay [7]: DRD fibroblast viability loss – cell-based, non-viral oncogenic, luminescence, dose response (AID 1934). In kind it is functional. The conditions noted are these: Homo sapiens.
The test system of assay [8] is BJ. Put plainly: BJ-TERT fibroblast viability loss – cell-based, RAS-independent, luminescence, dose response (AID 1933). Type of assay: functional. The conditions noted are these: Homo sapiens.
The subject of assay [9] is BJ. Put plainly: cells. In kind it is functional, cell-based. Particulars: Homo sapiens.
The nature of assay [10]: blockade of melanocortin 4 receptor signaling – cell-based, plate reader, cherry pick, counter-screen for LGR2 antagonist project, dose response (AID 743444).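 Note: transfected HEK 293 cells stimulated with alpha-MSH peptide; potency of inhibitors of the alpha-MSH evoked signal.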 In kind it is functional.
Assay [11] can be described thus: A549 cell cytotoxicity, dose response, cytotoxicity control, plate reader, cherry-pick, antagonist series (AID 743412). In kind it is functional, cell-based.
Assay [12] addresses T1, Oxysterols receptor LXR-beta (Homo sapiens, UniProt P55055).
T1 sequence (P55055 whole entry): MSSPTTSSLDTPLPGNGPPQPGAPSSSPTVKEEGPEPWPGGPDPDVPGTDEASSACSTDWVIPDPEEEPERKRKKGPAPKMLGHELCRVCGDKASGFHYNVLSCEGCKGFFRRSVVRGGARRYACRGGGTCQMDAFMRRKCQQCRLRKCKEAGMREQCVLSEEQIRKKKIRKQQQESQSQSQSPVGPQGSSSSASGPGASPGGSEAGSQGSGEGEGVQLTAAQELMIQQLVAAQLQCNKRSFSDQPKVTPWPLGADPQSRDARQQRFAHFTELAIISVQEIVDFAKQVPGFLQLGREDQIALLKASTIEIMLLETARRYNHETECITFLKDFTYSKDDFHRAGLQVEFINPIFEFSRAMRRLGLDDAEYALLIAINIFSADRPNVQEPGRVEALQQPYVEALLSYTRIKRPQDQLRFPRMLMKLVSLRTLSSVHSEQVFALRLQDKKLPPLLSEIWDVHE
The assay is described as follows: LXR agonists, Gal4 luciferase reporter, dose response, counter-screen for ssDAF-12 agonist project, cell-based, luminescence, HEK293, S. stercoralis campaign (AID 720737). In kind it is functional. The conditions noted are these: read-out: IC50 (the source's name). (In general: Reporter assays use an easily measured gene product as a stand-in for the process of interest.)

Assay [13] can be described thus: Luminescence-based cell-based high throughput dose response assay to identify activators of the DAF-12 from the parasite S. stercoralis (ssDAF-12). Type of assay: functional.

The source made the active and inactive calls.

Kallikrein-7, sequence (P49862 whole entry): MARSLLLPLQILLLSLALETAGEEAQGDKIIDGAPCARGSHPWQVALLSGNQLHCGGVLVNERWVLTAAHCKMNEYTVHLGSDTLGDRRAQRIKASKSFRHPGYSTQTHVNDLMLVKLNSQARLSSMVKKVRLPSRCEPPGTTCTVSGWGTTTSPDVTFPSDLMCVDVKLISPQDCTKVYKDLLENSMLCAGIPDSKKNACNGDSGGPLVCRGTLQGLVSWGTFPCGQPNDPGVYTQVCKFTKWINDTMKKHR
Luciferin 4-monooxygenase, sequence (P08659 whole entry): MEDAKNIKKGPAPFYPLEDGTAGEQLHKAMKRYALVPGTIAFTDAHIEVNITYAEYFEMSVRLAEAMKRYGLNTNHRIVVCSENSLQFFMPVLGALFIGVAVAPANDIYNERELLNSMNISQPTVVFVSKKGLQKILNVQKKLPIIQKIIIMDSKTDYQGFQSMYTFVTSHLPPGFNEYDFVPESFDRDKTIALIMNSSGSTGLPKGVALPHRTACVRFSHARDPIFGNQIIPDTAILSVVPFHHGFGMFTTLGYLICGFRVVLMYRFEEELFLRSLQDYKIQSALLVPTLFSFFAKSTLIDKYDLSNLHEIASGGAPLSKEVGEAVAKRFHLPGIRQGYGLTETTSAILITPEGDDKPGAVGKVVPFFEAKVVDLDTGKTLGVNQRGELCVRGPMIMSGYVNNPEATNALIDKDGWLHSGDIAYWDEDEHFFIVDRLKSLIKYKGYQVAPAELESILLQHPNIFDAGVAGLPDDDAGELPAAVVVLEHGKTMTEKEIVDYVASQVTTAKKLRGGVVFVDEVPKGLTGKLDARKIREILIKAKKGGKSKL

Take `CC(C)CNC(=O)CSc1nnc2ccccn12`: at Transthyretin, the EC50 was > 167 µM (inactive).

Take `O=C(Nc1c(-c2ccccc2)nc2ncccn12)c1ccccc1`: at Kallikrein-7, the EC50 is > 69.6 µM (inactive).

One may read the AC50 as the concentration giving half of the maximal activity seen. As for `CCOc1ccc(Nc2nc(N)c3ccccc3n2)cc1`, the AC50 in assay [1] is 13.2 µM (active); in assay [4], 12.9 µM (active); in [5], 1.62 µM (active); in assay [10], 2.31 µM (active); in assay [11] it was 12.8 µM (active). In addition, the EC50 is 0.738 µM (active) in assay [2]; 17.5 µM (active) with BJ [3]; 0.765 µM (active) in assay [6]; 8.22 µM (active) in assay [7]; 7.8 µM (active) in the assay on BJ [8]; 8.24 µM (active) with BJ [9].

Consider `COc1ccc(C2Nc3ccccc3C(=O)N2NS(C)(=O)=O)cc1OC` (stereo unspecified), for which the EC50 on Kallikrein-7 was 38.8 µM (inactive).

Usually IC50 stands for the point on the concentration scale where inhibition reaches its midpoint. `O=C(O)C(=O)/C(=C\c1ccccc1)c1ccc2ccccc2n1`: the EC50 in assay [12] is > 67.5 µM (inactive). The IC50 in [13] was > 67.5 µM (inactive).

The values are drawn from ChEMBL document CHEMBL1201862, “PubChem BioAssay data set” (2004).
